Where a name gives a salt, the structure may show the parent alone. Each block holds one compound with its values, some of them ahead of it.
Assays:
[1] = test system: Male, Fischer 344 rats; assay: Block of Conditioned Avoidance Responding (Rat) test (CAR); details: for CAR 5 mg/kg IP Administration (% change CAR) / CAR 15 mg/kg IP Administration (% change CAR): negative number = blockade of CAR
Excerpt: Apparatus: Rat operant chambers, housed within sound attenuated booths, both from Capden Instruments Ltd., were used in this test. The test chamber (8" H x […] D) is constructed of aluminum and plexiglass with floor grid bars of stainless-steel (1/8" O.D.) spaced 9/16" apart. A stainless-steel operation level 1-1/2" wide projects 3/4" into the chamber and is positioned 2-2/8" above the grid floor. The shock stimulus is delivered via the grid floor by a Coulbourn Instruments solid state module. The parameters of the test and the collection of data are controlled automatically.
The rats are trained for two weeks to approach criterion levels in the avoidance test (90% avoidance rate). One-hour training sessions are run at about the same time each day for four or five days a week. The training session consists of 120 trials, with the conditioned stimuli presented every 30 sec. A trial begins with presentation of the conditioned stimuli (a light and a tone). If the rat responds by depressing the operant lever during the 15-second presentation of the conditioned stimuli, the trial is terminated and the animal is credited with a CAR. Failure to respond during the conditioned stimuli causes the presentation of the unconditioned stimulus (UCS), a 0.7 mA shock which is accompanied by a light and tone for five seconds. If the rat depressed the lever within the ten-second period, the shock and trial are terminated and an escape response recorded. If the rat fails to depress the lever during the UCS (shock), the trial is terminated after ten seconds of shock and the absence of a response is scored as a failure to escape. Intertrial level presses have no effect. If a rat performs at the 90% CAR level for two weeks, it is then run twice a week on the test schedule (see below) until baseline performance stabilized.
Trained rats are run in a one-hour session on two consecutive days at the same time and in the same test chamber each day. The sessions consist of 60 trials, one every minute. The conditioned stimuli are presented for 15 sec (maximum) and the unconditioned stimuli five sec (maximum). On Day 1, a vehicle solution is administered to the rats at a time preceding the trial run corresponding to the pretreatment time for the test compound. The route of administration and the volume of vehicle are also matched to that of the test compound.
The percent change in CAR on the drug treatment day compared to vehicle pretreatment day is the key measure. The percent change (% change) in CAR is determined using the following formula: % change CAR = ((% CAR for Day 2/% CAR for Day 1) x 100)-100 [formula]
A negative number indicates a blockade of CAR, whereas a positive number would indicate increased CAR. The test results are reported as the mean % change for the group of rats. Failure to escape, a measure of the general sedative potential of the compound, was calculated for each animal as follows: % Failures = # of Failures to Escape/# of trials [formula]
The % failures, viz., loss of escape, is also reported as a group mean. Failures to escape are monitored closely and a session is terminated if ten failures occurred.
In the Tables and formulas therein, OiPr is isopropoxy, Me is methyl, MeO is methoxy, Et is ethyl, Ph is phenyl, n-Bu is normal butyl, cC6H11 is cyclohexyl, BOC is t-butyloxycarbonyl, Ac is acetyl, and NT is not tested in that partcular test. The escape loss numbers are shown at CAR 5 mg/kg unless otherwise noted.

[2] = biological target: T1, D-2 (dopamine-2) receptors (Rattus norvegicus, UniProt P61169); assay: biochemical; type: binding, male, Wistar rats; details: rat striatum P2 fraction, 3H-spiperone 0.05 nM; read-out: Receptor Binding (Ki nM) D2
T1 construct: The D2 assay employed a P2 fraction from the striatum, the ligand ^3H-spiperone at a concentration of 0.05 nM; from tissue; host or cells: rat striatum, P2 fraction (synaptosomal membranes), male Wistar rats
Method: The dopamine D2 binding activity of compounds was determined using a P2 fraction (synaptosomal membranes) prepared from male, Wistar rats.
The data from this assay were analyzed by calculating the percent inhibition of the binding of the tritiated ligands by given concentrations of the test compound. Kl values, where given, were obtained from the logit analysis of concentration-inhibition curves.

T1 sequence (P61169 whole entry): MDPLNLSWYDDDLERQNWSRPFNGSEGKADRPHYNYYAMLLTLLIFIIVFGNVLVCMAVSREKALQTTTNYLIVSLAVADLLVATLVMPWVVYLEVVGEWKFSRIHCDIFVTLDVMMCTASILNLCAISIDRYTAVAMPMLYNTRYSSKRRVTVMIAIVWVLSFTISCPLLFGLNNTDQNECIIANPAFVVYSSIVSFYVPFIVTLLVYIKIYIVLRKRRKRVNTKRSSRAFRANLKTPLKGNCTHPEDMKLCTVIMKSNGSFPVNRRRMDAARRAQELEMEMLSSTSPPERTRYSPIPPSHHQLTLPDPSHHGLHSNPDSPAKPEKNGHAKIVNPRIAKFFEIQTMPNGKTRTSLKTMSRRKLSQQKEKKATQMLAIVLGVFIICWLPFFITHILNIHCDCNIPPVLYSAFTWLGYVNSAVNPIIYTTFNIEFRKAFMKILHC

SMILES: O=C(c1cccc(CN2CCN(c3cccc(Cl)c3)CC2)c1)N1CCCCC1 [Compound 91]
CAR 5 mg/kg IP Administration (% change CAR) [1]: -36%
(Escape Loss) % failures to escape ([1]; at CAR 5 mg/kg IP): 21%

SMILES: CCOC(=O)C1CCCCN1C(=O)c1cccc(CN2CCN(c3ccccc3C)CC2)c1 (stereo not drawn) [Compound 18]
CAR 15 mg/kg IP Administration (% change CAR) [1]: -24%
(Escape Loss) % failures to escape ([1]; at CAR 15 mg/kg IP): 9%
Ki [2]: 132 nM

SMILES: CC(C)Oc1ccccc1N1CCN(CCCC(O)c2ccc(C(=O)N3CCCCC3)cc2)CC1 (stereo not drawn) [Compound 101, bisoxalate]
Ki [2]: 13 nM

SMILES: CC(C)Oc1ccccc1N1CCN(CCCC(=O)c2ccc(C(=O)N3CCCCC3)cc2)CC1 [Compound 100, fumarate]
Ki [2]: 11 nM

SMILES: CC(C)Oc1ccccc1N1CCN(Cc2ccccc2C(=O)N2CCOCC2)CC1 [Compound 110]
Ki [2]: 32 nM

SMILES: O=C(c1cccc(CN2CCN(c3ccccc3F)CC2)c1)N1CCCCC1 [Compound 22]
CAR 15 mg/kg IP Administration (% change CAR) [1]: -84%
(Escape Loss) % failures to escape ([1]; at CAR 15 mg/kg IP): 21%

SMILES: CC(C)Oc1ccccc1N1CCN(Cc2cccc(C(=O)N3CC4CCC(CC4)C3)c2)CC1 [Compound 96]
CAR 15 mg/kg IP Administration (% change CAR) [1]: -98%
(Escape Loss) % failures to escape ([1]; at CAR 15 mg/kg IP): 67%

SMILES: O=C(c1cccc(CN2CCN(c3cccc([N+](=O)[O-])c3)CC2)c1)N1CCCCC1 [Compound 49]
CAR 15 mg/kg IP Administration (% change CAR) [1]: -78%
(Escape Loss) % failures to escape ([1]; at CAR 15 mg/kg IP): 0%

SMILES: CC(C)Oc1ccccc1C1CCN(Cc2cccc(C(=O)N3[C@H](C)CCC[C@@H]3C)c2)CC1 [Compound 40]
CAR 5 mg/kg IP Administration (% change CAR) [1]: -98%
(Escape Loss) % failures to escape ([1]; at CAR 5 mg/kg IP): 37%

SMILES: CCOC(=O)C1CCN(C(=O)c2ccccc2CN2CCN(c3ccccc3OC(C)C)CC2)CC1 [Compound 108]
Ki [2]: 10.4 nM

SMILES: CC(C)Oc1ccccc1N1CCN(Cc2ccc([N+](=O)[O-])c(C(=O)N3CCCCC3)c2)CC1 [Compound 7]
Ki [2]: 85 nM

SMILES: COc1ccc(CN2CCN(c3ncccn3)CC2)cc1C(=O)N1[C@H](C)CCC[C@@H]1C [Compound 6]
Ki [2]: 808 nM

SMILES: O=C(c1cccc(CN2CCN(c3ccccc3)CC2)c1)N1CCCCC1 [Compound 95]
CAR 15 mg/kg IP Administration (% change CAR) [1]: -82%
(Escape Loss) % failures to escape ([1]; at CAR 15 mg/kg IP): 11%

SMILES: C[C@@H]1CCC[C@H](C)N1C(=O)c1cccc(CN2CCN(c3ccccc3C#N)CC2)c1 [Compound 3]
Ki [2]: 303 nM

Second part, led by results:

(Escape Loss) % failures to escape ([1]; at CAR 5 mg/kg IP): 20%
Ki [2]: 8 nM
SMILES: CC(C)Oc1ccccc1N1CCN(Cc2cccc(C(=S)N3CCCCC3)c2)CC1.Cl [Compound 1, 1-[3-[[4-[2-(1-Methylethoxy)phenyl]-1-piperazinyl]methyl]thiobenzoyl]piperidine Hydrochloride]
CAR 5 mg/kg IP Administration (% change CAR) [1]: -71%

(Escape Loss) % failures to escape ([1]; at CAR 7.5 mg/kg IP): 0%
SMILES: CC(C)Oc1ccccc1N1CCN(Cc2cccc(C(=O)N3CCCC3)c2)CC1 [Compound 52]
CAR IP Administration (% change CAR) at 7.5 mg/kg ([1]; 7.5 mg/kg IP): -98%

Ki [2]: 7.2 nM
SMILES: CC(C)Oc1ccccc1N1CCN(CCCCc2ccc(C(=O)N3CCCCC3)cc2)CC1 [Compound 102, 1-[4-[4-[4-[2-(1-Methylethoxy)phenyl]-1-piperazinyl]butyl]benzoyl]piperidine dihydrobromide]

(Escape Loss) % failures to escape ([1]; at CAR 15 mg/kg IP): 0%
SMILES: CC(C)Oc1ccccc1N1CCN(Cc2cccc(C(=O)N3CCC3)c2)CC1 [Compound 51]
CAR 15 mg/kg IP Administration (% change CAR) [1]: -88%

Ki [2]: 7 nM
SMILES: CC(C)Oc1ccccc1N1CCN(Cc2ccccc2C(=O)N2CCCC(C)(C)C2)CC1 [Compound 109]

Ki [2]: 5.6 nM
SMILES: CC(C)Oc1ccccc1N1CCN(Cc2cccc(C(=O)N3CCC4CCCCC43)c2)CC1 (stereo not drawn) [Compound 4]

(Escape Loss) % failures to escape ([1]; at CAR 15 mg/kg IP): 0%
SMILES: CCCCN(CCCC)C(=O)c1cccc(CN2CCN(c3ccccc3OC(C)C)CC2)c1 [Compound 69]
CAR 15 mg/kg IP Administration (% change CAR) [1]: -6%

(Escape Loss) % failures to escape ([1]; at CAR 5 mg/kg IP): 14%
SMILES: CCN(CC)C(=O)c1cccc(CN2CCN(c3ccccc3OC(C)C)CC2)c1 [Compound 68]
CAR 5 mg/kg IP Administration (% change CAR) [1]: -96%

Ki [2]: 4.7 nM
SMILES: CC(C)Oc1ccccc1N1CCN(Cc2cccc(C(=O)N3C(C)CCC3C)c2)CC1 (stereo not drawn) [Compound 2]

(Escape Loss) % failures to escape ([1]; at CAR 5 mg/kg IP): 22%
SMILES: COc1ccccc1N1CCN(Cc2cccc(C(=O)N3CCCCCC3)c2)CC1 [Compound 85]
CAR 5 mg/kg IP Administration (% change CAR) [1]: -95%

Source: patent EP0563345B1, “NOVEL 4-ARYLPIPERAZINES AND 4-ARYLPIPERIDINES” (MCNEILAB, INC., priority 1991, dated 1993)
